Laboratory results published in patent US7129269B2, “Compound” (Sterix Ltd., priority 1996, dated 2006).
Several values for one entry are separate records, joined by “and”; a condition that tells them apart may be missing. Identical values can stand only once.

Legend:
[1] = biological target: T1, oestrone sulphatase (Homo sapiens, UniProt P08842); assay: Oestrone sulphatase inhibition in placental microsomes; format: biochemical; details: compared with 19
T1 construct: from tissue; host or cells: placenta (microsomes, 100,000 g)
T1 sequence (P08842 22-583): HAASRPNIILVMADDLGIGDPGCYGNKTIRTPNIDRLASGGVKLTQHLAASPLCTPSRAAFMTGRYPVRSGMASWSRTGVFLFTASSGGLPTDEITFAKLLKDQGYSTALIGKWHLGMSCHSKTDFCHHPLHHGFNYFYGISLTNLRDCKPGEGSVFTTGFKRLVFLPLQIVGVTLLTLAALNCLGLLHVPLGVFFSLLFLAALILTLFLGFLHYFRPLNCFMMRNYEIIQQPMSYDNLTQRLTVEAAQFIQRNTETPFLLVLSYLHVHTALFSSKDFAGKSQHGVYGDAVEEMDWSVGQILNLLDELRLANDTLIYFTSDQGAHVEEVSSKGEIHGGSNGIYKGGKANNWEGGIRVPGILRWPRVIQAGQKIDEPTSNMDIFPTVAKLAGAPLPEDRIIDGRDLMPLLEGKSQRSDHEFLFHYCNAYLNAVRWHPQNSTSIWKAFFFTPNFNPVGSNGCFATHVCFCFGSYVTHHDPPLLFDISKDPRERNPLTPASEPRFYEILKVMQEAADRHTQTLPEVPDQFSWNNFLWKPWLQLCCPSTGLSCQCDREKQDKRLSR

[2] = biological target: T2, oestrone sulphatase (E1-STS) (Homo sapiens, UniProt P08842); assay: Oestrone sulphatase (E1-STS) inhibition in intact MCF-7 breast cancer cells; format: cell-based
T2 construct: endogenous in cells; host or cells: MCF-7 breast cancer cells
T2 sequence (P08842 22-583): T1 sequence (P08842 22-583)

[3] = biological target: T3, aromatase (Homo sapiens, UniProt P11511); assay: Aromatase inhibition in placental microsomes, tritiated water release assay
T3 sequence (P11511 1-503): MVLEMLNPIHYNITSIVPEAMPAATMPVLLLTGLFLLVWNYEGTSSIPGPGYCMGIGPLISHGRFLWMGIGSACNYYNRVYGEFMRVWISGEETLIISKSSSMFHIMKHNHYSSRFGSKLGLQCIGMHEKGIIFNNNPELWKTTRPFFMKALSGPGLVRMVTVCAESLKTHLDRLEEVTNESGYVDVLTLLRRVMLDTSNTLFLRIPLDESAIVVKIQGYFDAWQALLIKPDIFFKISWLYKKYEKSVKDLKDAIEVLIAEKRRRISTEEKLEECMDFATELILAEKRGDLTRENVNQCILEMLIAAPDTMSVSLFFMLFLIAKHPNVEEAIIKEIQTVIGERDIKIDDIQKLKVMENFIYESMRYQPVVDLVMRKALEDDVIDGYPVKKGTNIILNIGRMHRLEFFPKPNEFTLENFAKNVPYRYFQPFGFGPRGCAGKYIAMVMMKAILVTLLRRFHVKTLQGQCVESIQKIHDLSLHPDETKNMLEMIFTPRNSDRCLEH

[4] = biological target: T4, oestrone sulphatase (Rattus norvegicus, UniProt P15589); assay: In vivo inhibition of oestrone sulphatase activity in rat liver; details: 24 hours after single oral dose in propylene glycol; for % Inhibition of oestrone sulphatase in vivo: 10 mg/Kg
T4 construct: from tissue; host or cells: rat liver
T4 sequence (P15589 20-577): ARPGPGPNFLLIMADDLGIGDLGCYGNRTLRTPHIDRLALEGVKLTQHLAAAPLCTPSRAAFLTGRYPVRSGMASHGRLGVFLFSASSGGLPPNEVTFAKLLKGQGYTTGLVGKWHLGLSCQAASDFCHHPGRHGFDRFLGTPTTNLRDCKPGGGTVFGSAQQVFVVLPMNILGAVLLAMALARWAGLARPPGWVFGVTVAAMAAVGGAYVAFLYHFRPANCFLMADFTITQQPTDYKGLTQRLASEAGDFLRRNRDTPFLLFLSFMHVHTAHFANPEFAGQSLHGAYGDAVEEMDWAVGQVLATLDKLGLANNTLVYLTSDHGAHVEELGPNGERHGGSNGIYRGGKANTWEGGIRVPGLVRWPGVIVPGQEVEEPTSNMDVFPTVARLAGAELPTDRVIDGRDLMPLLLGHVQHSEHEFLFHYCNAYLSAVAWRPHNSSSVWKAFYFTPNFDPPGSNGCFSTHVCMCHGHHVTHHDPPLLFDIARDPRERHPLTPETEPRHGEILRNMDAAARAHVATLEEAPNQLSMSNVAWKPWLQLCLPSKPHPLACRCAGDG
Description: FIG. 11 presents in vivo inhibition of oestrone sulphatase activity in rat liver for two isoflavones according to the present invention. […] Compounds were administered as a single 10 mg/Kg dose. Oestrone sulphatase activity was assayed in tissue samples obtained 24 h after drug administration.

Row | inhibition of E1-STS activity in placental microsomes (in words) [1] | inhibition of E1-STS activity in MCF-7 cells (in words) [2] | % Inhibition of sulphatase activity in MCF-7 cells ([2]; 0.1 μM) | % Inhibition of sulphatase activity in MCF-7 cells ([2]; 1 μM) | % Inhibition of sulphatase activity in MCF-7 cells ([2]; 10 μM) | SMILES | % Inhibition of aromatase activity in placental microsomes at 10 μM [3] | % Inhibition of oestrone sulphatase in vivo [4] [%] | inhibition at 1 mg/kg ([4]; 1 mg/Kg) [%]
1 | less potent | less potent | >99% | >99% | >99% | NS(=O)(=O)Oc1ccc(C2COc3cc(OS(N)(=O)=O)ccc3C2)cc1 (racemic) [Compound 22, (±) Isoflavane-7,4′-O,O-bisulphamate] | 13% |  | 
2 |  |  | * (*Inactive) | * (*Inactive) | * (*Inactive) | COc1ccc(-c2oc3cc(OS(N)(=O)=O)cc(O)c3c(=O)c2OS(N)(=O)=O)cc1 [Compound 11, 5-Hydroxy-4′-methoxy flavone-3,7-O,O-bisulphamate] |  |  | 
3 |  |  | * (*Inactive) | * (*Inactive) | * (*Inactive) | COc1cc(-c2oc3cc(OS(N)(=O)=O)cc(O)c3c(=O)c2OS(N)(=O)=O)cc(OC)c1OC [Compound 12, 5-Hydroxy-3′,4′,5′-Trimethoxy flavone-3,7-O,O-bisulphamate] |  |  | 
4 |  |  | * (*Inactive) | * (*Inactive) | * (*Inactive) | COc1cc(-c2oc3cc(O)cc(O)c3c(=O)c2OS(N)(=O)=O)cc(OC)c1OC [Compound 13, 5,7-Dihydroxy-3′,4′,5′-Trimethoxy flavone-3-O-sulphamate] |  |  | 
5 |  |  | * (*Inactive) | * (*Inactive) | * (*Inactive) | COc1cc(-c2oc3cc(OS(N)(=O)=O)ccc3c(=O)c2OS(N)(=O)=O)cc(OC)c1OC [Compound 14, 3′,4′,5′-Trimethoxy flavone-3,7-O,O-bisulphamate] |  |  | 
6 |  |  | * (*Inactive) | * (*Inactive) | * (*Inactive) | COc1cc(-c2oc3cc(O)ccc3c(=O)c2OS(N)(=O)=O)cc(OC)c1OC [Compound 15, 7-Hydroxy 3′,4′,5′-Trimethoxy flavone-3-O-sulphamate] |  |  | 
7 |  |  | 2 ± 1.3% | 8 ± 0.6% | 9 ± 1.2% | COc1ccc(C2CC(=O)c3c(O)cc(OS(N)(=O)=O)cc3O2)cc1OS(N)(=O)=O (stereo not drawn) [Compound 21, 5-Hydroxy 4′-methoxy flavanone-3′,7-O,O-bisulphamate] |  |  | 

Further lines, the compound ahead of its results:

Row | SMILES | inhibition of E1-STS activity in placental microsomes (in words) [1] | inhibition of E1-STS activity in MCF-7 cells (in words) [2] | % Inhibition of sulphatase activity in MCF-7 cells ([2]; 0.1 μM) | % Inhibition of sulphatase activity in MCF-7 cells ([2]; 1 μM) | % Inhibition of sulphatase activity in MCF-7 cells ([2]; 10 μM) | % Inhibition of aromatase activity in placental microsomes at 10 μM [3] | % Inhibition of oestrone sulphatase in vivo [4] [%] | inhibition at 1 mg/kg ([4]; 1 mg/Kg) [%]
8 | NS(=O)(=O)Oc1ccc2c(=O)cc(-c3ccccc3)oc2c1 [Compound 1, Flavone-7-O-sulphamate] |  |  | 0.30 ± 0.2% | 1.8 ± 1.0% | 4.9 ± 0.3% |  |  | 
9 | NS(=O)(=O)Oc1ccc2oc(-c3ccccc3)cc(=O)c2c1 [Compound 2, Flavone-6-O-sulphamate] |  |  |  | 99.1 ± 0.6% | 98.9 ± 1.3% |  |  | 
10 | COc1cc2oc(-c3ccccc3)cc(=O)c2c(O)c1OS(N)(=O)=O [Compound 4, 5-Hydroxy-7-methoxy flavone-6-O-sulphamate] |  |  | 11 ± 2.7% | 51 ± 3.0% | 78 ± 1.7% |  |  | 
11 | COc1cc(O)c2c(=O)cc(-c3ccc(OS(N)(=O)=O)cc3)oc2c1 [Compound 5, 5-Hydroxy-7-methoxy-flavone-4′-O-sulphamate] |  |  | 35 ± 4.0% | 88 ± 3.1% | 99 ± 0.6% |  |  | 
12 | COc1ccc(-c2cc(=O)c3c(O)c(OC)c(OC)cc3o2)cc1OS(N)(=O)=O [Compound 6, 5-Hydroxy 4′,6,7-Trimethoxy flavone-3′-O-sulphamate] |  |  | * (*Inactive) | 18 ± 6.1% | 27 ± 3.5% |  |  | 
13 | COc1ccc(-c2cc(=O)c3c(OC)c(OC)c(OC)cc3o2)cc1OS(N)(=O)=O [Compound 7, 4′,5,6,7-Tetramethoxy flavone-3′-O-sulphamate] |  |  | 29 ± 0.8% | 23 ± 1.8% | 12 ± 0.5% |  |  | 
14 | NS(=O)(=O)Oc1ccc(-c2cc(=O)c3ccccc3o2)cc1OS(N)(=O)=O [Compound 8, Flavone-3′,4′-O,O-bisulphamate] |  |  | * (*Inactive) | 13 ± 8.0% | 29 ± 1.3% |  |  | 
15 | NS(=O)(=O)Oc1ccc(-c2cc(=O)c3c(O)cc(OS(N)(=O)=O)cc3o2)cc1 [Compound 9, 5-Hydroxy flavone-4′,7-O,O-bisulphamate] |  |  | 8 ± 2.6% | 79 ± 0.8% | 98 ± 0.4% |  |  | 
16 | NS(=O)(=O)Oc1cc(O)c2c(=O)c(OS(N)(=O)=O)c(-c3ccccc3)oc2c1 [Compound 10, 5-Hydroxy flavone-3,7-O,O-bisulphamate] |  |  | * (*Inactive) | 8 ± 6.4% | 12 ± 7.5% |  |  | 
17 | COc1ccc(-c2coc3cc(OS(N)(=O)=O)cc(O)c3c2=O)cc1 [Compound 16, 5-Hydroxy-4′-methoxyisoflavone 7-O-sulphamate] |  |  | * (*Inactive) | 11 ± 3.0% | 37 ± 1.7% | * (*Inactive) |  | 
18 | NS(=O)(=O)Oc1ccc(-c2coc3cc(OS(N)(=O)=O)cc(O)c3c2=O)cc1 [Compound 17, 5-Hydroxy isoflavone-4′,7-O,O-bisulphamate] |  |  | 22–87% and 28 ± 1.7% | 79–99% |  | * (*Inactive) | 81.4 ± 3.2 | 
19 | NS(=O)(=O)Oc1ccc(-c2coc3cc(O)cc(O)c3c2=O)cc1 [Compound 18, 5,7-Dihydroxy isoflavone-4′-O-sulphamate] |  |  | 23 ± 2.2% | 83 ± 2.7% | 99 ± 0.7% | * (*Inactive) | 62.0 ± 4.7 | 
20 | NS(=O)(=O)Oc1ccc(-c2coc3cc(OS(N)(=O)=O)ccc3c2=O)cc1 [Compound 19, Isoflavone-4′,7-O,O-bisulphamate] |  |  |  |  |  | * (*Inactive) | 71.4 ± 2.9 | 
21 | C[C@]12CC[C@@H]3c4ccc(OS(N)(=O)=O)cc4CC[C@H]3[C@@H]1CCC2=O [EMATE, oestrone-3-sulphamate, reference compound] |  |  |  |  |  |  |  | > 99
